Results on seven molecules are retold here after patent US20250099414A1, “COMPOSITIONS AND METHODS FOR TREATING TRIPLE-NEGATIVE BREAST CANCER” (The Board of Regents of the University of Oklahoma, priority 2019, published 2025).

In one data set the test system is mouse EMT6 TNBC cells. To be noted: for IC50: read-out: IC50, cell viability, 72 h, concentration of DM1 as free drug or in the conjugate, 2 mM calcium.
The test system of data set [1] is EMT6 cells. The experiment in a line: ICD study: cytotoxicity (cell death) after 24 hours. The format is cell-based, murine. To be noted: 10 nM DM1.
For data set [2], the system named is EMT6 cells. The experiment in a line: Immunogenic cell death: ATP release (luminescence kit). The format is cell-based, murine. To be noted: 24 h. On the procedure: To determine if ANXA5-DM1 induces ATP release from cells after treatment, an ATP luminescence kit (Molecular Probes, Eugene, OR, USA) was utilized according to the manufacturer's instructions. […] After 24 h, 10 μL of cell media was added to 90 μL of standard reaction solution in a white plate. Luminescence reading was obtained from the plate reader, and ATP concentration was calculated by comparing the luminescence reading to a standard curve.

Data set [3] concerns EMT6 cells. The experiment in a line: Immunogenic cell death: calreticulin surface expression (flow cytometry). In kind it is cell-based, murine. To be noted: 10 nM DM1; 24 h. On the procedure:
To determine if ANXA5-DM1 induces calreticulin surface expression, flow cytometry was utilized. EMT6 and 4T1 cells were seeded at 25,000 cells/well in 24 well plates and treated 24 h after seeding. […] After 24 h, media was collected into microcentrifuge tubes to collect dead cells. To ensure there would be enough cells, three wells were combined to be one sample. Cells in the plates were then washed with PBS, and 100 μL of trypsin was added to each well. Once 90% of the cells were removed from the plate (2-5 min), cells were added to the microcentrifuge tubes and centrifuged at 500×g for 5 min. Cells were resuspended in 200 μL of 0.5% BSA-PBS and counted to have at least 100,000 cells per sample. Cells were then fixed with 4% paraformaldehyde (PFA, Thermo Fisher Scientific, Waltham MA, USA) for 20 min at 4° C. Cells were then washed two times with 500 μl of 0.5% BSA-PBS at 500×g for 5 minutes. […] After incubation, cells were analyzed on a BD Biosciences Accuri C6 flow cytometer (Franklin Lakes, New Jersey, USA) with excitation at 488 nm, and a 533/30 bandpass filter was used to capture 10,000 gated events per sample. Data was collected and analyzed with BD C6 Accuri software. One sample was composed of three wells, and each sample was analyzed three times. […]
A general note: In flow cytometry, cells or beads pass a laser one at a time.

In another data set the test system is healthy MCF10A cells. The experiment in a line: ANXA5-DM1 and ANXA5 cell viability assay (AlamarBlue), healthy mammary cells. As to conditions: for IC50: read-out: IC50, cell viability, 72 h, 100% confluent cells.
Another data set concerns EMT6. The experiment in a line: ANXA5-CMB TNBC cell cytotoxicity, EMT6. The format is cell-based, murine. As to conditions: 24 hours. The source says: (§1) While the cytotoxic activity of the ANXA5-CMB conjugate is excellent against TNBC cells, the cytotoxicity of the conjugate must be tested against healthy vascular and mammary cells.
In the next data set the test system is 4T1. The experiment in a line: ANXA5-CMB TNBC cell cytotoxicity, 4T1. In kind it is cell-based, murine. To be noted: 24 hours.
From the text: as §1

For data set [4] the following is noted: cited from earlier work.
A further data set concerns 4T1 cells. The experiment in a line: ANXA5-VPA TNBC cytotoxicity (Alamar Blue), 4T1. The format is cell-based, murine. As to conditions: 48 hours, VPA in the conjugate or free VPA, 10^−4 to 10 mM. On the procedure:
(§2) After confirming the conjugation of VPA to ANXA5, the cytotoxicity of the ANXA5-VPA conjugate was tested in two murine TNBC cell lines (EMT6 and 4T1). […] EMT6 and 4T1 cells were seeded at 5,000 cells/well in 96 well plates and treated 48 hours after seeding. Cells were treated with 10^−4 to 10 mM of VPA in the ANXA5-VPA conjugate or free VPA growth medium fully supplemented with 2 mM of calcium to promote ANXA5 binding. After 48 hours, cell viability was analyzed via a fluorescent Alamar Blue assay. Percent viability was determined by normalizing the control (0 mM VPA) to 100% and comparing each treatment group to the control (n=3).

In data set [5] the test system is EMT6 cells. The experiment in a line: ANXA5-VPA TNBC cytotoxicity (Alamar Blue), EMT6. The format is cell-based, murine. To be noted: 48 hours, VPA in the conjugate or free VPA, 10^−4 to 10 mM. On the procedure:
as §2
For orientation: Resazurin is reduced to fluorescent resorufin, in cell work by metabolically active cells.

Another data set concerns murine TNBC cells. The experiment in a line: ANXA5-CMB TNBC cell cytotoxicity, statements on both lines together. In kind it is cell-based. As to conditions: at 1 μM.
From the text: as §1

A further data set has as its system HUVEC cells. The experiment in a line: ANXA5-CMB healthy cell cytotoxicity (resazurin), HUVEC. To be noted: dose up to 100 μM CMB in the conjugate; 90-100% confluency; 2 mM calcium; 24 hours. On the procedure: (§3) Cell viability was assayed by a resazurin assay (n=3-6). […] Cells were treated with 0-100 μM of CMB in the ANXA5-CMB conjugate in growth media fully supplemented with 2 mM calcium to promote ANXA5 binding. After 72 hours, an Alamar Blue assay was utilized to determine viability. Percent viability was determined by comparing treatment groups to the untreated control (0 μM).
(§4) Cells were treated with 0-100 μM CMB in the ANXA5-CMB conjugate in fully supplemented growth medium with 2 mM calcium. Cells were grown to 90-100% confluency. […] Cell viability was measured via an Alamar Blue assay and viability was compared to the control (0 μM) after 24 hours. Data is presented as mean±SD (n=4-8). Cells were treated with 0-100 μM CMB in the ANXA5-CMB conjugate in fully supplemented growth medium with 2 mM calcium. Cells were grown to 90-100% confluency. […] Cell viability was measured via an Alamar Blue assay and viability was compared to the control (μM) after 24 hours. Data is presented as mean±SD (n=4-8).

A further data set concerns MCF10A cells. The experiment in a line: ANXA5-CMB healthy cell cytotoxicity (resazurin), MCF10A. In kind it is cell-based, human. To be noted: 90-100% confluency; 2 mM calcium; 24 hours. On the procedure:
as §3, §4

For data set [6], the system named is murine TNBC cell lines (EMT6 and 4T1). The experiment in a line: ANXA5-VPA TNBC cytotoxicity, statement on both lines together. In kind it is cell-based. To be noted: 48 hours. On the procedure:
as §2

Data set [7] deals with healthy MCF10A human breast cells. The experiment in a line: ANXA5 colorimetric binding (modified indirect ELISA), MCF10A. On the procedure:
(§5) Binding strength was analyzed via a modified indirect ELISA. Cells (50,000 cells/well) were grown onto 24 well plates and fixed with 0.025% glutaraldehyde once cancer cells were 70-80% confluent, or MCF10A noncancerous cells were 100% confluent. Cancer cells were blocked with 0.5% BSA for 1 h at 37° C. Cells were incubated with 0-20 nM of biotinylated ANXA5 for 2 h at 37° C. and 5% CO2. ANXA5 was biotinylated with a Roche biotin protein labeling kit (Roche, Basel, Switzerland), and the level of biotinylation was quantified with a Pierce Biotin Quantification kit (Pierce Biotechnology, Waltham, MA, USA) per manufacturer's instructions. Cells were washed four times with 0.5% BSA to remove unbound ANXA5. […] The supernatant was collected, and the absorbance was read at 450 nm on a BioTek Synergy HT microtiter plate reader (Winooski, VT). […] The dissociation constant was determined using the nonlinear regression one-site total and nonspecific binding model in GraphPad Prism version 9 software (Graph Pad, San Diego California, USA).
(§6) To confirm the ability of the ANXA5 to bind to PS on the surface of TNBC cells, equilibrium binding experiments with increasing concentrations of biotinylated ANXA5 were used. […] After subtracting out 0 nM ANXA5 background absorbance, the non-specific binding was essentially 0, meaning ANXA5 was not binding to the EMT6 and 4T1 cells when Ca^2+ was absent. […]
On the technique in general: In an ELISA, binding on a coated surface is turned into a signal by an enzyme label.

The test system of data set [8] is EMT6-strain TNBC cells with PS externalization. The experiment in a line: ANXA5 colorimetric binding (modified indirect ELISA), EMT6. Further details: species or system murine. As to conditions: 0-20 nM biotinylated ANXA5; 2 mM Ca2+; read-out: dissociation constant of the specific binding. On the procedure: as §5, §6
Data set [9] relates to 4T1-strain TNBC cells with PS externalization. The experiment in a line: ANXA5 colorimetric binding (modified indirect ELISA), 4T1. Also noted: species or system murine. To be noted: 0-20 nM biotinylated ANXA5; 2 mM Ca2+; read-out: dissociation constant of the specific binding. On the procedure:
as §5, §6

Where [10] appears, read: read-out: IC50, cell viability, 72 h, concentration of DM1 as free drug or in the conjugate, 2 mM calcium.

“Also recorded” adds a separate entry of the source. Like-named read-outs stand apart in the source and are kept apart here. A value given as a limit tells only on which side of the number the result lay.

On to “ANXA5-DM1: mertansine (DM1) linked to lysine residues of recombinant annexin A5 with the crosslinker sulfo-SMCC”, for which the “potency (IC50) relative to free DM1” value with mouse EMT6 TNBC cells (72 h viability assay) and in the data set on mouse 4T1 TNBC cells (72 h viability assay) was “more than 2 orders of magnitude” throughout. Moreover, the IC50 is 0.00021 µM in the data set with mouse EMT6 TNBC cells; 0.00085 µM in the data set on mouse 4T1 TNBC cells (setting [10]); 0.00021 µM in the data set with mouse 4T1 TNBC cells (read-out: equivalent IC50 based on the ANXA5 concentration, assuming 4 moles DM1 per mole ANXA5, from 0.85 nM DM1); above 5 µM with healthy MCF10A cells (concentration of DM1); above 48 µM in the data set on healthy MCF10A cells (doses up to 48 μM). Further, in the data set on EMT6 cells [1], the “cell death (cytotoxicity)” value was “significantly increased cell death”. Further, in the data set with EMT6 cells [2] (10 nM DM1, versus free DM1 or control), the ATP release result is “significantly increased ATP release; also recorded: significant increase”. Besides, the “ATP released relative to free DM1” value in the data set on EMT6 cells [2] (10 nM) is on record as around 10 times. The “calreticulin surface expression (median fluorescent intensity)” value with EMT6 cells [3] is on record as “significantly increased calreticulin surface expression; also recorded: significant increase”. The “cytotoxicity to healthy breast cells” value in the data set with healthy MCF10A cells (100% confluence, compared with free DM1, doses up to 48 μM) was “significantly less cytotoxic; also recorded: does not have cytotoxic effects”.

`O=C(O)CCCc1ccc(N(CCCl)CCCl)cc1` [CMB, Chlorambucil, reference compound]: the IC50 came to 102 µM in the data set on EMT6 (Mus musculus, EMT6) and 156 µM in the data set with 4T1 (Mus musculus, 4T1).

As to `CCCC(CCC)C(=O)O` [VPA, Valproic acid], the IC50 in data set [4] (72-96 hours, read-out: concentration required to achieve an IC50 value) is above 1000 µM. Further, the “dose required to be effective in vitro” value in data set [4] (delivered alone, after 72 hours) is 1 to 10 mM. Besides, the IC50 concentration entry with 4T1 cells and in the data set on EMT6 cells [5] was “could not be obtained with a dose of up to 10 mM; also recorded: could not be calculated” throughout.

Consider “ANXA5-CMB: chlorambucil linked to ANXA5 lysine residues via EDC crosslinking chemistry”, for which the cytotoxicity in the data set with murine TNBC cells is 100%. Besides, the figures for the IC50 in the data set on EMT6, with 4T1 and in the data set with MCF10A cells were 0.42 µM, 2.7 µM and 6 µM, respectively. The results for the “IC50 ratio (CMB / ANXA5-CMB)” value in the data set on EMT6 and with 4T1 were 241 and 57, respectively. For the same molecule, the “effect on cell viability” value in the data set with HUVEC cells is given as “did not impact viability”.

As to ANXA5-VPA, the IC50 in the data set with 4T1 cells (read-out: IC50 concentration) and with EMT6 cells [5] (read-out: IC50 concentration) was around 10 µM throughout. The “lowest dose with significantly increased cell death compared to the free drug control” value in data set [6] was found to be 97 nM.

`COc1cc2cc(c1Cl)N(C)C(=O)C[C@H](OC(=O)[C@H](C)N(C)C(=O)CCS)[C@]1(C)O[C@H]1[C@H](C)[C@@H]1C[C@@](O)(NC(=O)O1)[C@H](OC)/C=C/C=C(\C)C2` [DM1, Mertansine, reference compound]: the IC50 came out at 0.028 µM in the data set with mouse EMT6 TNBC cells, 0.32 µM in the data set on mouse 4T1 TNBC cells (setting [10]) and 0.16 µM with healthy MCF10A cells (concentration of DM1). Also, the “cell death (cytotoxicity)” value in the data set with EMT6 cells [1] is given as “significantly increased cell death”.

For the molecule “ANXA5: recombinant annexin A5 produced in E. coli; binds phosphatidylserine in a Ca2+-dependent manner”, in data set [7] (cells grown to confluence), the “dissociation constant (Kd)” value is “not detectable”. Moreover, the “specific binding of ANXA5 to the cells” value in data set [7] (total minus nonspecific binding) is recorded as “no specific binding; also recorded: no ANXA5-PS binding was observed”. For the same molecule, the Kd came out at 0.00114 µM in data set [8] and 0.00231 µM in data set [9].
